The values below come from patent publication EP0089154A2, “Ethanolamine derivatives, their preparation and use in pharmaceutical compositions” (BEECHAM GROUP PLC, priority 1982, dated 1983).

Experiment [1] deals with Female CFLP mice. Briefly: Anti-hyperglycaemic activity: subcutaneous glucose load in fasted mice. Format: in vivo. As to conditions: Mus musculus, po, read-out: % REDUCTION IN AREA UNDER BLOOD GLUCOSE CURVE; for inhibition in vivo at 12.5 µmol/kg: dose 12.5 μmol/kg orally. The procedure:
Female CFLP mice, weighing approximately 25 g, were fasted for 24 hours prior to the study. The compounds under study were administered orally as an aqueous solution to each of 6 mice. 30 Minutes later a blood sample (10 pl) was obtained from the tail for the analysis of blood glucose. Immediately after taking this blood sample, glucose (1 g/kg body weight) was administered subcutaneously to each mouse. 6 Mice were given water as a control. Blood samples were then obtained from each mouse at 30 minute intervals for 120 minutes.
Compounds that produced a significant (P 0.05) reduction of blood glucose, compared with control mice given water, at any time interval, were considered active. The area under the blood glucose curve over the 2 hour period after the administration of the glucose was calculated for each compound and compared with the value for control animals.

Experiment [2] has as its system Rat hearts. Description: Cardiac activity: Langendorff perfused rat heart. The procedure:
Rat hearts were perfused by the Langendorff procedure. Hearts were dissected free within 30 seconds of death and reverse perfused via the aorta and coronary vessels with Krebs-Ringer bicarbonate solution (pH 7.4, 37°C) gassed with 95% oxygen:5% carbon dioxide at a flow rate between 8-12 cm^3/minute. Responses were observed after injection of drug dissolved in isotonic saline into the perfusion media.
Results are expressed as a percentage of the maximum response due to salbutamol.

The test system of experiment [3] is rat ear. Briefly: Anti-inflammatory activity: croton oil induced rat ear inflammation. Format: in vivo. Particulars: 1.00 mg/rat ear, topical in 1% croton oil in tetrahydrofuran, ear weight after 6 hours. As for the experimental part:
The method used is based on that described by G.Tonelli et al (Endocrinology, 77, 625-634, 1965). An inflammation is induced in the rat ear by the application of 50 pl of a 1% solution of croton oil in tetrahydrofuran, test compounds being dissolved in the irritant vehicle. After 6 hours the inflammation is assessed by killing the animals and weighing the ears. Topical anti-inflammatory activity of a compound is generally considered to be shown when a significant (5% level) reduction in ear weight is seen compared to non- drug treated control.

[4] abbreviates: 30 µg added to perfusate, perfused rat heart, read-out: HEART RATE.
Setting [5] is: 30 µg added to perfusate, perfused rat heart, read-out: HEART TENSION.
[6] abbreviates: mice fasted 24 hours, glucose 1 g/kg subcutaneously, 2 hour period, compared with control given water.
The mark [7] stands for this setting: dose 2.5 μmol/kg orally, mice fasted 24 hours, glucose 1 g/kg subcutaneously, 2 hour period, compared with control given water.
The mark [8] stands for this setting: dose 1.0 μmol/kg orally, mice fasted 24 hours, glucose 1 g/kg subcutaneously, 2 hour period, compared with control given water.

Where a name gives a salt, the structure may show the parent alone. Read-outs that look alike come from different tables or passages of the source.

In the case of `CSc1ccc(C[C@H](C)NC[C@H](O)c2cccc(Cl)c2)cc1` [Example 18], in experiment [1] (2 h), the inhibition in vivo at 5 µmol/kg amounted to 16%.

As to `CC(Cc1ccc(CS(=O)(=O)C(C)C)cc1)NCC(O)c1cccc(C(F)(F)F)c1` (centres unmarked) [Example 12, N-[2-(4-Isopropylsulphonylmethylphenyl)-1-methylethyl] -2-hydroxy-2-(3-trifluoromethylphenyl)ethanamine], the Emax at 30 µg came out at 13% in experiment [2] (setting [4]) and 40% in experiment [2] (setting [5]).

As for `CSc1ccc(CC(C)NCC(O)c2cccc(Cl)c2)cc1` (centres unmarked) [Example 2, N-[2-(4-Methylthiophenyl)-1-methylethyl]-2-hydroxy-2-(3-chlorophenyl)ethanamine], the Emax at 30 µg in experiment [2] (Rattus norvegicus, read-out: HEART RATE) is 23%; in experiment [2] (Rattus norvegicus, read-out: HEART TENSION), 25%. Moreover, the inhibition in vivo at 1 µmol/kg in experiment [1] (2 h) was 8%.

With `CC(Cc1ccc(S(=O)(=O)C(C)C)cc1)NCC(O)c1cccc(C(F)(F)F)c1` (centres unmarked) [Example 8, N-[2-(4-Isopropylsulphonylphenyl)-1-methylethyl]-2-hydroxy-2-(3-trifluoromethylphenyl)ethanamine], the Emax at 30 µg in experiment [2] (setting [4]) came out at 29%; in experiment [2] (setting [5]) it was 30%.

Consider `COCCSc1ccc(CC(C)NCC(O)c2cccc(Cl)c2)cc1` (centres unmarked) [Example 21, N-[2-(4-(2-Methoxyethylthio)phenyl)-1-methylethyl]-2-hydroxy-2-(3-chlorophenyl)ethanamine hydrochloride], for which, in experiment [1] (2 h), the inhibition in vivo at 1 µmol/kg came to 31%.

`CC(Cc1ccc(SCc2ccccc2)cc1)NCC(O)c1cccc(Cl)c1` (centres unmarked) [Example 4, N-[2-(4-Benzylthiophenyl)-1-methylethyl]-2-hydroxy-2-(3-chlorophenyl)ethanamine]: the inhibition in vivo at 12.5 µmol/kg in experiment [1] (setting [6]) is 17%.

For the compound `CC(Cc1ccc(S(=O)(=O)C(C)(C)C)cc1)NCC(O)c1cccc(Cl)c1` (centres unmarked) [Example 15, N-(2-(4-t-Butylsulphonylphenyl)-1-methylethyl]-2-hydroxy-2-(3-chlorophenyl)ethanamine hydrobromide], the inhibition in vivo at 100 µmol/kg in experiment [1] (2 h) stood at 48%.

For `CC(Cc1ccc(S(=O)(=O)CCCO)cc1)NCC(O)c1cccc(C(F)(F)F)c1` (centres unmarked) [Example 9, N-[2-(4-{3-Hyaroxypropylsulphonyl}phenyl)-1-methylethyl] -2-hydroxy-2-(3-trifluoromethylphenyl)-ethanamine], in experiment [1] (setting [6]), the inhibition in vivo at 12.5 µmol/kg was found to be 52%.

For `CC(Cc1ccc(CS(C)(=O)=O)cc1)NCC(O)c1cccc(C(F)(F)F)c1` (stereo not drawn) [Example 11, N-[2-(4-Methylsulphonylmethylphenyl)-l-methylethyl] -2-hydroxy-2-(3-trifluoromethylphenyl)ethanamine], the figures for the Emax at 30 µg in experiment [2] (setting [4]) and in experiment [2] (setting [5]) were 67% and 18%, respectively.

As to `CC(Cc1ccc([S+](C)[O-])cc1)NCC(O)c1cccc(Cl)c1` (centres unmarked) [Example 20, N-[2-(4-Methylsulphinylphenyl)-1-methylethyl]-2-hydroxy-2-(3-chlorophenyl) ethanamine], the inhibition in vivo at 12.5 µmol/kg in experiment [1] (setting [6]) stood at 59%.

In the case of `CC(Cc1ccc(SCCOc2ccccc2)cc1)NCC(O)c1cccc(Cl)c1` (centres unmarked) [Example 22, N-[2-(4-(2-Phenoxyethylthio)phenyl)-1-methyletlzyl]-2-hydroxy-2-(3-chlorophenyl) ethanamine], the inhibition in vivo at 2.5 µmol/kg in experiment [1] (setting [7]) was found to be 23%.

On to `CC(Cc1ccc(S(C)(=O)=O)cc1)NCC(O)c1cccc(C(F)(F)F)c1` (centres unmarked) [Example 7, N-[2-(4-Methylsulphonylphenyl)-1-methylethyl]-2-hydroxy-2-(3-trifluoromethylphenyl)ethanamine], for which the Emax at 30 µg was determined as 25% in experiment [2] (setting [4]) and 0% in experiment [2] (setting [5]). In experiment [1] (setting [6]), the inhibition in vivo at 12.5 µmol/kg came to 48%.

Take `CC(Cc1ccc(SC(C)C)cc1)NCC(O)c1ccccc1` (centres unmarked) [Example 17, N-[2-(4-Isopropylthiophenyl)-1-methylethyl]-2-hydroxy-2-phenylethanamine]: the inhibition in vivo at 2.5 µmol/kg in experiment [1] (2 h) was determined as 30%.

As for `COC(=O)CCS(=O)(=O)c1ccc(CC(C)NCC(O)c2cccc(Cl)c2)cc1` (centres unmarked) [Example 10, N-[2-(4-{2-Carbomethoxyethylsulphonyl}phenyl)-1-methylethyl] -2-hydroxy-2-(3-chlorophenyl)ethanamine], the Emax at 30 µg in experiment [2] (setting [4]) is 31%; in experiment [2] (setting [5]), 91%. The inhibition in vivo at 1 µmol/kg in experiment [1] (setting [8]) was found to be 10%.

For the compound `CC(Cc1ccc(SC(C)C)cc1)NCC(O)c1cccc(Cl)c1` (centres unmarked) [Example 3, N-[2-(4-Isopropylthiophenyl)-1-methylethyl]-2-hydroxy-2-(3-chlorophenyl)ethanamine hydrochloride], the inhibition in vivo at 0.5 µmol/kg in experiment [1] (2 h) is 28%.

On to `COC(=O)CCSc1ccc(CC(C)NCC(O)c2cccc(C(F)(F)F)c2)cc1` (centres unmarked) [Example 1, N-[2-(4-(2-Carbomethoxyethylthio)phenyl)-1-methylethyl] 2-hydroxy-2-(3-trifluoromethylphenyl)ethanamine], for which the Emax at 30 µg in experiment [2] (setting [4]) was 0%; in experiment [2] (setting [5]) it was 4%. Further, the inhibition in vivo at 12.5 µmol/kg in experiment [1] (setting [6]) is 35%. The same compound came in with an inhibition in experiment [3] of 89%. In experiment [3] (active = significant (5% level) reduction in ear weight), the outcome was Active.

Consider `CSc1ccc(C[C@@H](C)NC[C@H](O)c2cccc(Cl)c2)cc1` [Example 19, (RR, SS)-N-[2-(4-Methylthiophenyl)-1-methylethyl]-2-luydroxy-1-(3-chlorophenyl) ethanamine hydrochloride], for which, in experiment [1] (2 h), the inhibition in vivo at 2.5 µmol/kg was determined as 26%.

Take `CC(Cc1ccc(SCCSc2ccccc2)cc1)NCC(O)c1cccc(Cl)c1` (centres unmarked) [Example 24, N-[2-(4-(2-Phenylthioethylthio)phenyl)-1-methylethyl]-2-hydroxy-2-(3-chlorophenyl)ethanamine]: the inhibition in vivo at 2.5 µmol/kg in experiment [1] (setting [7]) was found to be 12%.

`CNCCSc1ccc(CC(C)NCC(O)c2cccc(Cl)c2)cc1` (centres unmarked) [Example 23, N-[2-(4-(2-Methylaminoethylthio)phenyl)-1-methlethyl]-2-hydrox-2-(3-chlorophenyl)ethanamine dihydrochloride]: the inhibition in vivo at 1 µmol/kg in experiment [1] (setting [8]) came to 16%.

The inhibition is the relative decrease from the control value, in per cent. The low end stands for a response near the control, the high end for a response far below the control.
